Assays:
Format in all cases: in vivo
[1] = system: cat fleas (Ctenocephalides felis (Bouche)); test: Cat flea Petri dish filter paper bioassay (repellency and mortality); settings: 2.76 mg per dish
Method: To test the effectiveness of nootkatone against fleas, cat fleas (Ctenocephalides felis (Bouche)) were collected from a flea colony at St. Gabriel, La.
Petri dishes (5 cm diameter and 1 cm height) were prepared by lining one half of the top and the bottom with a half circle of filter paper (55 mm), and lining the other half with a second half circle of filter paper. For the treated Petri dishes, 50 mg nootkatone or 100 mg REPEL® were dissolved in 0.5 ml ethanol. […] Ten replicate Petri dishes were used for each of the treatments. The ethanol solution was added to the filter paper on the top and bottom and dried for 10 min. To place the fleas in the Petri dishes, fleas were temporarily immobilized by placing them at −20° C. for 5 min. The number of fleas in each Petri dish varied: for the 10 control Petri dishes, the average number in each dish was 10.2, with a range of 4 to 23; for 0.2 mg nootkatone, the average number in each dish was 8.5, with a range of 5 to 18; for 1 mg nootkatone, the average number in each dish was 10.6, with a range of 6 to 21; for 2 mg nootkatone, the average number in each dish was 11.1, with a range of 9 to 15 (Fleas could be counted in only 9 Petri dishes; one had too many fleas to count); and for 2.76 mg Deet, the average number in each dish was 6.7, with a range of 5 to 9.
The number of fleas on each side of each Petri dish was counted at 1 hr, 2 hr, 3 hr, 4 hr, 24 hr, 48 hr, 72 hr, and 96 hr.

[2] = system: German cockroaches (Blattella germanica); test: German cockroach Petri dish filter paper bioassay (repellency and toxicity)
Method: To test the efficacy of nootkatone against cockroaches, German cockroaches (Blattella germanica) were collected at Baton Rouge, La., the same day as the bioassay was begun.
For the bioassay, Petri dishes (10 cm diameter×1 cm) were used. The Petri dishes were prepared by lining one half of the top and one half of the bottom with a half circle of filter paper (125 mm), and lining the other half with a second half circle of filter paper. For the treated Petri dishes, 50 mg nootkatone and 300 mg REPEL® were dissolved in 2.0 ml ethanol. To each Petri dish was added either ethanol only, 30 mg Deet, 1 mg nootkatone, or 10 mg nootkatone. Ten replicate Petri dishes were used for each of the treatments. The ethanol solution was added to the filter paper on the top and bottom and dried for 10 min. One cockroach was added to each Petri dish. The length of the cockroaches varied from 1 to 1.5 cm. The dishes were then observed at 15 min, 30 min, 1 hr, 2 hr, 3 hr, 4 hr, 5 hr, 24 hr, 48 hr, and 120 hr.

[3] = system: ticks (Ixodes scapularis); test: Tick Petri dish bioassay with treated sand (repellency and toxicity); settings: 2.75 mg/dish
Method: To test the effectiveness of nootkatone against ticks, ticks (Ixodes scapularis) were collected from Idlewild, La. Nootkatone efficiacy was tested relative to a known repellent, N,N-diethyl-m-toluamide (“Deet”). REPEL®, which contains 27.55% Deet, was purchased locally from a retail garden store.
The bioassay was conducted using Petri dishes (5 cm diameter and 1 cm height). To ensure adequate moisture for the ticks, 1 ml of a hot agar solution (1.5% in H2O) was spread evenly on the inside surfaces of the Petri dish, including the top, bottom, and edges. After the agar cooled, sand that was treated as described below was spread evenly on the inside surfaces of the Petri dish. The sand was held in place by the agar.
For the treated sand, either 2 mg nootkatone or 100 mg REPEL® was initially dissolved in 2 ml ethanol, and then 200 μl of the solution was mixed with 2 g sand that had been autoclaved and cooled. The control was autoclaved sand with 200 μl ethanol only added. One half of the surfaces in the Petri dishes were covered with 2 g treated sand, and the other half with 2 g untreated sand. In the nootkatone-treated Petri dishes, the final concentration was 200 μg/dish; while in the Deet treated Petri dishes, the final concentration was 2.75 mg/dish. Control Petri dishes were prepared by covering all sides with untreated sand. One tick was added to each Petri dish, and the top replaced. The number of replicates were as follows: control, 6; nootkatone, 9; and Deet, 8. […] Repellent activity was noted if the tick was found on the untreated side of the Petri dish. The ticks in the control Petri dishes were randomly distributed on the left and right sides.
The above experiment was repeated with ticks (Ix. scapularis) collected from Hammond, La. The number of replicates in this experiment were as follows: controls, 8; nootkatone, 10; and Deet, 8.

[4] = 8 replicates, ticks from Hammond

## CCN(CC)C(=O)c1cccc(C)c1 [Deet, N,N-diethyl-m-toluamide, reference compound]
[1]
  Overall activity against fleas: effective as both a repellent and a toxicant
[1]; first observation (1 hr)
  Repellent activity against fleas: showed repellent activity
[2]; 30 mg per dish
  Repellent activity against the cockroaches: no significant repellent activity
[2]; 30 mg per dish, 30 min
  Percent Repellency: 50%
[2]; 30 mg per dish, 1 hr
  Percent Repellency: 40%
[2]; 30 mg per dish, 2 hr
  Percent Repellency: 70%
[2]; 30 mg per dish, 3 hr
  Percent Repellency: 50%
[2]; 30 mg per dish, 4 hr
  Percent Repellency: 60%
[2]; 30 mg per dish, 5 hr
  Percent Repellency: 70%
[2]; 30 mg per dish, 24 hr
  Percent Repellency: 38%
[2]; 30 mg per dish, 48 hr
  Percent Repellency: 43%
[2]; 30 mg per dish, 120 hr
  Percent Repellency: 50%
[2]; any of the treatments (30 mg Deet; 1 mg or 10 mg nootkatone), up to 120 hr
  Number of cockroach deaths compared with the control: not significantly different from the control
[3]; [4]
  Petri dishes that lost the repellent activity after 96 hr: one
  Ticks dead at 24 hr (number): one
  Ticks dead at 72 hr (number): one
  Ticks dead at 96 hr (number): four
[3]; 8 replicates, ticks from Idlewild
  Petri dishes that had lost the repellent activity after 90 hr: three
[3]; ticks from Hammond
  Ticks dead at 96 hr (percent): 50%
[3]; ticks from Idlewild
  Ticks dead after 90 hr: No ticks

Source: US6906108B2, “Extracts of vetiver oil as repellent and toxicant to ants, ticks, and cockroaches” (Board of Supervisors of Louisiana State University and …, priority 2001, dated 2005)
